Laboratory results: patent publication US7417026B2, “Mobilization of hematopoietic cells” (Children's Hospital Medical Center, priority 2003, dated 2008)

What was measured:
HSC/progenitor cells [1] = assay: Mobilization of progenitor cells into peripheral blood, Rac2-/- mice; assay type: in vivo; conditions: intraperitoneal injection, three doses
Experimental: In FIG. 5, NSC23776 or PBS as a control was administered by intraperitoneal injection to normal mice and mice with a genetic deficiency of Rac2 (Rac2−/− mice). At the indicated time points after injection, mice were bled and analyzed for the number of progenitor cells in the peripheral blood. Three doses of drug were administered. Each point represents samples from 6 mice, mean +/− SEM. For information on how to make and use NSC23776 and other small molecule inhibitors, see copending U.S. Provisional application 60/523,599, filed Nov. 20, 2003.

HSC/progenitor cells [2] = assay: Mobilization of progenitor cells into peripheral blood, normal mice; assay type: in vivo; conditions: intraperitoneal injection, three doses
Experimental: In FIG. 4, NSC23776, an inhibitor of GEF interaction with Rac proteins, or PBS as a control was administered by intraperitoneal injection to normal mice. At the indicated time points after injection, mice were bled and analyzed for the number of progenitor cells in the peripheral blood. Three doses of drug were administered. Each point represents samples from 6 mice, mean +/− SEM.

WT HSC/P cells [3] = assay: Cell cycle analysis of HSC/P after SCF stimulation (cells in S+G2/M); assay type: cell-based, mice; conditions: 30 μM
Experimental: To further analyze the mechanism, by which Rac1 affects proliferation in primitive HSC/P cells, cell cycle analysis was performed after stimulation with 100 ng/ml SCF. […] In contrast, the number of Rac2−/− cells in S+G2/M phases was similar to WT cells. The delay in entry into S phase was significant by 24 hours after SCF addition and persisted at 48 hours. This defect in cell cycle progression appeared directly related to Rac1 deficiency, since expression of Rac1 protein using retrovirus-mediated gene transfer restored cycle progression in Rac1−/− cells [33+4 vs. 19+3 vs. 34+3; % cells in S+G2/M, WT vs. Rac1−/− vs. Rac1−/− (Rac1+), p<0.01 Rac1−/− vs. Rac1−/− (Rac1+)].

WT neutrophils [4] = conditions: 10 μM
Experimental: Neutrophil chemotaxis in response to 10 μM formyl-methionyl-leucyl-phenylalanine (fMLP) was examined in Boyden chamber assays.

p42/p44 = conditions: neutrophils, 10 μM
From the text: (§2) It was next determined whether, in a manner similar to HSC/P, p42/p44 MAPKs were regulated via Rac proteins in neutrophils.

ERK = conditions: HSC/P cells, 30 μM
WT neutrophils [5] = conditions: 10 μM; remark: listed apart in the source
From the text: as §2

WT HSC/P cells [6] = assay: Apoptosis of HSC/P following SCF stimulation (Annexin-V); assay type: cell-based, mice; conditions: concentration not given
From the text: By contrast, Rac2 appears to play no role in proliferation but regulated cell survival through the known anti-apoptotic protein Akt (Kennedy, et al. Genes Dev. 11, 701-13, 1997). Rac2 but not Rac1 deficiency was associated with increased frequency of both early (Annexin-V+) and late (Annexin V+/7AAD+) apoptotic cells (FIG. 2F) and expression of the Rac2 cDNA in Rac2−/− HSC/P led to a complete reversal of the apoptotic phenotype [4.4+0.8 vs. 6.6+1.3, vs. 3.1+0.7; % Annexin-V+ cells, WT vs. Rac2−/− vs. Rac−/− (Rac2+); p<0.01 Rac2−/− vs. Rac2−/− (Rac2+)]. Loss of both Rac1 and Rac2 activities was associated with a more severe apoptotic phenotype compared with deficiency of only Rac2 GTPase activity (FIG. 2D). […] The reduced Akt activation was close to normal in Rac1−/− cells.

WT neutrophils [7] = conditions: 10 μM; remark: listed apart in the source
From the text: as §2

RhoA-F30L [8] = target: T1, RhoA-F30L (Homo sapiens, UniProt P61586, F30L); assay: Downregulation of RhoA-F30L biochemical activity by retrovirally expressed RhoGAP chimera; assay type: cell-based; conditions: for biochemical activity of F30LRhoA: high copy number retroviral vector SF91-EMCV-IRES-GFP
T1 construct: expressed in transfected cells
T1 sequence (P61586 whole entry F30L): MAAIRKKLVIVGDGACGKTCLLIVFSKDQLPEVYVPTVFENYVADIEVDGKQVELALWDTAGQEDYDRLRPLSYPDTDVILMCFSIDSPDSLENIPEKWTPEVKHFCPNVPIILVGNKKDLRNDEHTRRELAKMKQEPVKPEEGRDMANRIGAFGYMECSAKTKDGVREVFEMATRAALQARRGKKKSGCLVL
From the text: (§1) Like other cases of retrovirus-based gene transfer approach, the copy number of the introduced RhoGAP-Rho chimeras in the host cells will likely to be important for the efficacy of their application.

RhoA-F30L [9] = target: T1, RhoA-F30L; assay: RhoA-F30L-induced transformation; assay type: cell-based; conditions: for RhoA-F30L-induced transformation: high copy number retroviral vector SF91-EMCV-IRES-GFP
From the text: as §1

Molecule: CCN(CC)CCCC(C)Nc1nc(C)cc(Nc2ccc3nc(C)cc(N)c3c2)n1 (stereo not drawn) [NSC23776]
- mobilization of HSC/progenitor cells (HSC/progenitor cells [1]): additive effect
- mobilization of HSC/progenitor cells (HSC/progenitor cells [2]): does indeed lead to mobilization

Molecule: N#CC(=C(/N)Sc1ccccc1N)/C(C#N)=C(\N)Sc1ccccc1N [U0126]
- number of cells in S+G2/M (WT HSC/P cells [3]): significant reduction
- cell migration (WT neutrophils [4]): significant decrease
- phosphorylation of p42/p44 (p42/p44): abrogates
- ERK activation (ERK): inhibited
- cortical actin formation (WT neutrophils [5]): impaired cortical actin formation
- increase in apoptosis (WT HSC/P cells [6]): An increase in apoptosis was not seen
- percentage of NBT+ cells (WT neutrophils [7]): no change

Molecule: p190: GAP-containing protein fraction of human p190, the predominant GAP for RhoA, expressed alone
- biochemical activity of F30LRhoA (RhoA-F30L [8]): did not affect
- RhoA-F30L-induced transformation (RhoA-F30L [9]): did not affect

B1: p190-RhoA-C: p190GAP fused with the RhoA C-terminal sequence, expressed from a retroviral vector (protein)
chain: VPLTTVVTPEKPIPIFIERCIEYIEATGLSTEGIYRVSGNKSEMESLQRQFDQDHNLDLAEKDFTVNTVAGAMKSFFSELPDPLVPYSMQIDLVEAHKINDREQKLHALKEVLKKFPKENHEVFKYVISHLNRVSHNNKVNLMTSENLSICFWPTLMRPDFSSMDALTATRSYQTIIELFIQQCPFFFYNRPISEPPGAALAPLQPWHPLSPSSPLHLLPVSHHLPSHLLQPLSPQCSHCSPLSSKPNTRCEPPQPRKQENQLSSLQARRGKKKSGCLVL
modifications: chimeric fusion peptide/p190RhoGAP plus c-terminus tail section of the targeted GTPase
- biochemical activity of RhoA-F30L (RhoA-F30L [8]; expression with MIEG3): insufficient
- biochemical activity of F30LRhoA (RhoA-F30L [8]): specifically decrease
- transforming activity of RhoA-F30L (RhoA-F30L [9]; expression with MIEG3): insufficient
- RhoA-F30L-induced transformation (RhoA-F30L [9]): specifically decrease
